Experiments:
[1] = tested on: 15 different HLA-DR molecules; assay: HLA-DR binding assays, panel of 15 different HLA-DR molecules (breadth of binding); conditions: number of the 15 HLA-DR molecules bound (binders: 1000 nM or better)
purified HLA DRB1*0405 = molecular target: T1, purified HLA DRB1*0405 (Homo sapiens, UniProt P01903+P01911, A100R/A169T/D86S/F76Y/I96L/K127E/L162R/M171V/N62H/P40V/Q125Y/R42H/S133A/S149N/S66Y/V115G/V209L/W38E); assay: HLA-DR radioligand binding inhibition assay, DRB1*0405; conditions: IC50 nM purified HLA DRB1 *0405, purified HLA DRB1*0405
T1 construct: purified from EBV transformed homozygous cell lines or single MHC allele transfected 721.221, C1R, or fibroblast lines; made in house
Protocol: (§1) Instead, wells of an opaque white 96-well Optiplate (Packard) are coated with 3 μg (100 μl@ 30 μg/ml) of HLA-specific antibody (Ab) that “capture” complexes of radiolabeled MHC and unlabeled peptide transferred from the molecular binding assay plate in 100 μl of 0.05% NP40/PBS. After a 3-hour incubation period, the supernatant is decanted and scintillation fluid (Microscint 20) added. Captured complexes are then measured on a microplate scintillation and luminescence counter (TopCount NXTTM; Packard).
(§2) HLA-DR purification. Fifteen distinct HLA-DR molecules were used in quantitative assays to measure the binding of peptides to solubilized HLA-DR molecules. […] Briefly, columns of inactivated Sepharose CL4B and Protein A Sepharose were used as pre-columns. HLA-DR molecules were captured by passage of lysates over LB3.1 monoclonal antibody (anti-HLA-DRA) columns. Antibody columns were washed with 10 mM Tris-HCL, pH8.0 with 1% (v/v) NP-40, followed by PBS containing 0.4% (w/v) n-octylglucoside.
(§3) Briefly, 1-10 nM of radiolabeled peptide was co-incubated for 2 days at either room temperature or 37° C. with 1 μM to 1 nM purified HLA-DR molecules in the presence of a cocktail of protease inhibitors. Assays were performed at various pH conditions, ranging from pH 4 to pH 7. […] After incubation, the percentage of HLA-DR-bound radioactivity is determined by capturing HLA-DR/peptide complexes on Optiplates (Packard Instruments, Meriden, Conn.) coated with the LB3.1 antibody and determining bound counts per minute using the TopCount microscintillation counter (Packard Instruments).

purified HLA DRB1*1501 = molecular target: T2, purified HLA DRB1*1501 (Homo sapiens, UniProt P01903+P01911); assay: HLA-DR radioligand binding inhibition assay, DRB1*1501
T2 construct: purified from EBV transformed homozygous cell lines or single MHC allele transfected 721.221, C1R, or fibroblast lines; made in house
Protocol: as §1, §2, §3

SMILES | Total XRN [1] | IC50 (purified HLA DRB1*0405) | IC50 (purified HLA DRB1*1501)
CC[C@H](C)[C@H](NC(=O)[C@@H](NC(=O)[C@@H](NC(=O)[C@H](Cc1ccccc1)NC(=O)[C@H](CCCNC(=N)N)NC(=O)[C@H](CCC(N)=O)NC(=O)[C@@H]1CCCN1C(=O)[C@H](CC(=O)O)NC(=O)[C@H](CCCNC(=N)N)NC(=O)[C@H](C)NC(=O)[C@H](CCSC)NC(=O)[C@H](CCCNC(=N)N)NC(=O)[C@H](CO)NC(=O)[C@@H](N)Cc1ccccc1)C(C)C)C(C)C)C(=O)N[C@@H](CCC(N)=O)C(=O)O [Peptide 9019.0004] | 10 |  | 
CC(C)C[C@H](NC(=O)[C@H](CO)NC(=O)[C@H](C)NC(=O)[C@H](CC(N)=O)NC(=O)[C@@H](NC(=O)[C@@H]1CCCN1C(=O)[C@H](CC(C)C)NC(=O)[C@H](Cc1ccc(O)cc1)NC(=O)[C@@H](NC(=O)[C@@H](N)CC(C)C)[C@@H](C)O)[C@@H](C)O)C(=O)N[C@@H](CO)C(=O)N[C@@H](Cc1ccccc1)C(=O)N[C@@H](CC(C)C)C(=O)N[C@@H](CCC(N)=O)C(=O)N[C@@H](CC(=O)O)C(=O)O [Peptide 9019.0031] | 12 |  | 
CC[C@H](C)[C@H](NC(=O)[C@H](CCC(=O)O)NC(=O)[C@@H](NC(=O)[C@H](CC(C)C)NC(=O)[C@H](CO)NC(=O)[C@H](CCCNC(=N)N)NC(=O)[C@H](CC(C)C)NC(=O)[C@H](CCC(N)=O)NC(=O)[C@H](CC(C)C)NC(=O)[C@H](CCC(=O)O)NC(=O)[C@H](CCCNC(=N)N)NC(=O)[C@H](CC(C)C)NC(=O)CNC(=O)CNC(=O)[C@@H]1CCCN1)[C@@H](C)O)C(=O)O [Peptide 9019.0038] |  | 110 nM | 4410 nM
CC[C@H](C)[C@H](NC(=O)[C@H](CCCNC(=N)N)NC(=O)CNC(=O)[C@H](CCCNC(=N)N)NC(=O)[C@@H](NC(=O)[C@@H](NC(=O)[C@H](CCC(N)=O)NC(=O)[C@H](CC(C)C)NC(=O)[C@H](CC(N)=O)NC(=O)[C@H](CCC(N)=O)NC(=O)[C@H](Cc1ccccc1)NC(=O)[C@@H](NC(=O)[C@H](CO)NC(=O)[C@@H](N)CC(C)C)C(C)C)C(C)C)[C@@H](C)CC)C(=O)N[C@@H](CC(C)C)C(=O)O [Peptide 9019.0052] | 14 |  | 
CC[C@H](C)[C@H](NC(=O)[C@H](CC(C)C)NC(=O)[C@H](C)NC(=O)[C@H](CC(C)C)NC(=O)CNC(=O)[C@H](CO)NC(=O)CNC(=O)[C@H](CC(C)C)NC(=O)[C@H](CCC(=O)O)NC(=O)[C@H](CCCNC(=N)N)NC(=O)[C@H](CC(C)C)NC(=O)[C@H](CO)NC(=O)[C@H](CCCNC(=N)N)NC(=O)[C@@H](N)CC(C)C)C(=O)N[C@@H](Cc1c[nH]cn1)C(=O)O [Peptide 9019.0057] | 12 |  | 
CC[C@H](C)[C@H](NC(=O)[C@@H](NC(=O)[C@H](CC(C)C)NC(=O)[C@H](CCCCN)NC(=O)[C@H](C)NC(=O)[C@@H](N)[C@@H](C)O)[C@@H](C)O)C(=O)N[C@@H](CCC(=O)O)C(=O)N[C@@H](CO)C(=O)N[C@H](C(=O)N1CCC[C@H]1C(=O)N[C@@H](Cc1ccccc1)C(=O)N[C@@H](CC(N)=O)C(=O)N[C@H](C(=O)N[C@@H](C)C(=O)N[C@@H](CCC(=O)O)C(=O)O)C(C)C)[C@@H](C)O [Peptide 9019.0106] | 9 |  | 

— patent US20140377340A1, “HLA-DR BINDING PEPTIDES AND THEIR USES” (priority 2007, published 2014)
